Measured values reported in US6617358B1, “Anticonvulsant and central nervous system-depressing bis(fluorophenyl)alkylamides and their uses” (NPS Pharmaceuticals, Inc., priority 1997, dated 2003).

System: flexor reflex in normal anesthetized rats
Assay: Flexor reflex in normal anesthetized rats (FIG. 3)
Assay type: in vivo, rat
Conditions: in comparison to baclofen, FIG. 3 legend only, values not given
Description: Baclofen, diazepam (Valium), and tizanidine are effective on different parameters of spasticity (EMG recordings, H-reflex, the H/M ratio, mono- and polysynaptic reflexes, clonus, hyperreflexia) in these models. The flexor reflex is a polysynaptic response elicited by stimulation of the bottom of the foot and models the withdrawal reflex.

## NC(=O)CC(c1cccc(F)c1)c1cccc(F)c1 [Compound 1, 3,3-bis(3-fluorophenyl)propanamide]
  reduction in the flexor reflex: reduction in the flexor reflex
